Source: US11795510B2, “Identification of epigenomic reprogramming in cancer and uses thereof” (The Johns Hopkins University, priority 2016, dated 2023)
“Also recorded” adds a separate entry of the source.

Tests used:
[1] = target: T1, 6-phosphogluconate dehydrogenase (PGD) (Homo sapiens, UniProt P52209); assay: Steady state LC-HRMS metabolite profiling (glycolytic/PPP metabolites); assay type: cell-based
T1 construct: endogenous in cells; host or cells: low-passage rapid-autopsy PDAC cell lines (e.g. A38Lg, A38Per, A13 subclones)
T1 sequence (P52209 1-483): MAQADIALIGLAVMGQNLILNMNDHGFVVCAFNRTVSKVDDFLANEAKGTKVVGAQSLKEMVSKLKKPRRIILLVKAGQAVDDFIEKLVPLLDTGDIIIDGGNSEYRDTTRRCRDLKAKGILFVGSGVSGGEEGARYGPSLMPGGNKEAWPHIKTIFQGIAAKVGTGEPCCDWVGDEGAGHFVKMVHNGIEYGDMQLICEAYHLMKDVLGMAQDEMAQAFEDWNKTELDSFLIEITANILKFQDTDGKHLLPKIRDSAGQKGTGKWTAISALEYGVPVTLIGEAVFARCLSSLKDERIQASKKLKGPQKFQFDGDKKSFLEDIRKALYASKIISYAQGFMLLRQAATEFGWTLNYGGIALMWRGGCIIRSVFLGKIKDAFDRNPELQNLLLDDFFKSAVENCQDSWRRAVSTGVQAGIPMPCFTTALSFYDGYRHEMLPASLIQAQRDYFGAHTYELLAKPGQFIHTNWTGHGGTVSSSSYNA
Description: Tissue samples and cell lines were previously collected from PDAC patients by rapid autopsy, sequenced-validated, and monitored for mycoplasma as previously described. Low passage (2-17) rapid autopsy cell lines were cultured at 37° C. in DMEM with 10% fetal bovine serum (FBS, Gibco). For MTT assays, 15,000 cells/well were plated into 96 well plates in triplicate, treated 12 hours later, and assayed after 24 hr (glucose responses) or 6 days (chemotherapy) with CellTiter96 (Promega). For glucose response assays, nutrient-deplete DMEM (no glucose, glutamine, pyruvate, or serum) was used with addition of glucose as indicated. […] Cells were then washed with PBS, trypsinized, and viable cells counted with a hemocytometer. Glucose uptake and lactate secretion were measured with a YSI 7100 Bioanalyzer as described in the supplementary methods. […]
LC-HRMS Metabolite Profiling. LC-HRMS samples were prepared and analyzed as described in Liu et al. (Development and quantitative evaluation of a high-resolution metabolomics technology. Anal Chem 86, 2175-84 (2014)). […] Additional replicates were also included and counted at the end of the experiment for normalization. […] Pellets were reconstituted into a volume normalized to protein content (15 uL of 1:1 acetonitrile:methanol and 15 uL of water was used per 1 mg protein) and analyzed by LC-QE-MS. […]

[2] = test system: distant metastatic and primary tumor precursor subclones; assay: 3-D matrigel tumor forming assay, distant metastatic subclones; assay type: cell-based, human
Description: RNAi experiments were performed with siRNA transfections (Oligofectamine, Life Technologies) using negative control siRNA (Sigma, SIC001) and pre-designed siRNA oligonucleotides against indicated genes in parallel (Sigma, PGD: SASI_Hs02 00334150, CDH2: SASI_Hs01_00153995, TOP2B: SASI_Hs02_00311874). siRNAs against mutant KRAS^G12V (CUACGCCAACAGCUCCAAC) (SEQ ID NO:1) were custom designed. Cells were incubated with siRNAs for 4 days after transfection and harvested. For drug treatments in 2-D, cells were grown to 70-80% confluency and treated for 3 days with 250 uM 6AN or DMSO negative control.
3-D matrigel assays were adapted from Cheung et al. (Control of alveolar differentiation by the lineage transcription factors GATA6 and HOPX inhibits lung adenocarcinoma metastasis. Cancer Cell 23, 725-38 (2013)). […] Well-formed tumors were then counted and representative photographs taken with an EVOS instrument. 3-D suspension tumorsphere assays were performed with 20,000 starting cells/well in ultra-low attachment 6 well plates as described, and tumors counted/photographed after at least 7 days of tumor growth.

## NC(=O)c1ccc(N)nc1 [6AN, 6-aminonicotinamide]
[1]
  steady state levels of glucose and metabolites directly upstream of the PGD reaction (6PG, G1,5L): dramatically elevated; also recorded: greatly increased
  steady state levels of metabolites downstream of the PGD reaction: corresponding reductions
[2]
  tumor formation in 3D matrigel assays: selectively and strongly blocked tumor formation; also recorded: ablated tumor formation
